In paper PMC9154793, “Design, synthesis, and biological evaluation of triazole-pyrimidine-methylbenzonitrile derivatives as dual A2A/A2B adenosine receptor antagonists” (Journal of Enzyme Inhibition and Medicinal Chemistry, 2022):
Read-outs that look alike come from different tables or passages of the source.

What was measured:
human A2B AR = target: T1, human A2B AR (Homo sapiens, UniProt P29275); test: cAMP functional assay in CHO-K1/ADORA2b/Gα15 cells (NECA-stimulated, HTRF); type: cell-based; details: for inhibition at 0.1 µM: compound at 100 nM, relative to ZM241385 at 1 μM, read-out: hA2B AR (%) inhibition of cAMP, 100 nM
T1 sequence (P29275 1-332): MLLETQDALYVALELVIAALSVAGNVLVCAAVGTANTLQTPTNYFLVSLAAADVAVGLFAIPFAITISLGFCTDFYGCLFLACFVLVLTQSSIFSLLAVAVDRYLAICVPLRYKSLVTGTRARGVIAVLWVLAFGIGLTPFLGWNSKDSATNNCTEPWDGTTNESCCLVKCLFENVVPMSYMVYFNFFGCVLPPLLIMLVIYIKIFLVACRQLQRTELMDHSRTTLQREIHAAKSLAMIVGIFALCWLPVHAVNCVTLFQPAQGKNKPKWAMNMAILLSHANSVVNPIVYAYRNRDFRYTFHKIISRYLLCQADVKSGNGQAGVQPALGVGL
Protocol: In the cAMP assay, CHO-K1/ADORA2A/Gα15 cells expressing human A2A AR and CHO-K1/ADORA2b/Gα15 cells expressing human A2B AR were activated by 5′-(N-ethylcarboxamido)adenosine (NECA) and triggered the accumulation of intracellular cAMP concentration.
CHO-K1/ADORA2A/Gα15 cells expressing human A2A AR and CHO-K1/ADORA2b/Gα15 cells expressing human A2B AR were both constructed by Genscript Biotech Corporation. […] The test stock solutions were diluted with different gradients for use. The procedure was exemplified by the cAMP functional assay on the A2A receptor: 10,000 cells/well of CHO-K1/ADORA2A/Gα15 were seeded in a 384-well plate in 20 μl of assay buffer. […] Then, 10 μl of detection reagent (cAMP-d2 and anti-cAMP-Eu3+) was added into each well of the plate and incubated at room temperature for 1 h.

[1] = In vivo pharmacokinetics study in Balb/c mice; details: for Cmax / Tmax / half-life / AUC(0-inf) / bioavailability / AUC(0-t): female, Balb/c, mouse, plasma; for bioavailability: oral 30 mg/kg vs i.v. 10 mg/kg, read-out: F (absolute bioavailability)
Protocol: The in vivo pharmacokinetic (PK) profiles of compounds 7f and 7i were examined in […] Balb/c mice (Table 5 and Figure 5). […] After the intravenous (i.v.) administration of 10 mg/kg, the maximum plasma concentration of compounds 7f and 7i were 5010.30 µg/l at 0.25 h and 7266.60 µg/l at 0.25 h, respectively. […] These PK parameters can be used to evaluate the drug-like properties of compounds 7f and 7i, so as to clarify their effectiveness and obtain better clinical treatment effects.
The absolute bioavailabilities of synthetic compounds (7f, 7i) were studied in female Bal b/c mice (Jinan Pengyue Experimental Animal Breeding Co., Ltd.). The mice were divided into four groups each having six mice and were collected at crossover time points, with three mice at each point. Pharmacokinetics (PK) was evaluated after a single dose of 30 mg/kg oral gavage (Oral) or 10 mg/kg intravenous (i.v.) administration. After oral administration and i.v. injection, blood samples were obtained from the suborbital veniplex at pre, 15 min, 30 min, 1 h, 2 h, 4 h, 6 h, 8 h, 12 h, 24 h (Oral) and pre, 5 min, 15 min, 30 min, 1 h, 2 h, 4 h, 6 h, 8 h, 12 h, 24 h (i.v.). Approximately 200 μl of blood was collected at each time point. All blood samples were put into plastic microcentrifuge tubes containing Heparin-Na as an anticoagulant. Microcentrifuge tubes with blood samples and anticoagulant were inverted several times for proper mixing of the tube contents to centrifugation for plasma. Plasma samples will be centrifuged at 12,000 rpm for 8 min at 4 °C to obtain the supernatant. The serum sample (25 μl) was treated with acetonitrile (100 μl), after which the mixture was vortex-mixed for 8 min and centrifuged at 10,000 rpm for 10 min at 4 °C. The supernatant layer was collected and then 50 μl of supernatant was injected for the UPLC-MS/MS analysis (details of the analytical method see Supporting information). […]
9. Analytical method of pharmacokinetics assay
Animal experiments were performed according to the institutional ethical guidelines on animal care and approved by the Institute Animal Care and Use Committee at Binzhou […]
Female Bal b/c mice (sourced from Jinan Pengyue Experimental Animal Breeding Co., Ltd.) approximately 6-8 weeks of age, and a weight of approximately 20-30 g. All of the mice were permitted with free access to standard pelleted food and water ad libitum and were kept in clean cages under controlled conditions (light/ dark cycle of 12 h, 60 ± 2% humidity, and 25 ± 1 °C). Before the day of administration, […] were fasted for 12 h but allowed water ad libitum.
9.2 Design of bioavailability study
The mice were divided into 4 groups each having six mice and were collected at crossover time points, with three mice at each point. Pharmacokinetics (PK) was […]
evaluated after a single dose of 30 mg/kg oral gavage (Oral) and 10 mg/kg intravenous […]
(i.v.) administration. The blood samples were obtained from the suborbital veniplex.
Each cohort had three mice, and plasma was collected at pre, 5 min, 15 min, 30 min, 1 […]
h, 2 h, 4 h, 6 h, 8 h, 12 h, and 24 h post dose for intravenous administration. Plasma […]
was collected at pre, 15 min, 30 min, 1 h, 2 h, 4 h, 6 h, 8 h, 12 h, and 24 h post dose for […]
9.3 Samples collection and quantitative analysis
Approximately 200 μL of blood was collected at each time point. All blood samples […]
were put into plastic microcentrifuge tubes containing Heparin-Na as anticoagulant. […]
microcentrifuge tubes with blood samples and anticoagulant were inverted several […]
times for proper mixing of the tube contents to centrifugation for plasma. Plasma […]
samples will be centrifuged at 12000 rpm for 8 min at 4 ℃ to obtain the supernatant.
The serum sample (25 μL) was treated with acetonitrile (100 μL), after which the […]
mixture was vortex-mixed for 8 min and centrifuged at 10000 rpm for 10 min at 4 ℃.
The supernatant layer was collected and then 50 μL of supernatant was injected for the […]
9.4 Chromatography and mass spectrometry conditions […]

[2] = iv, i.v. 10 mg/kg, read-out: Cmax i.v.
[3] = oral 30 mg/kg, read-out: Cmax Oral
[4] = iv, i.v. 10 mg/kg, mean n = 3, read-out: t1/2 i.v. (converted)
[5] = iv, i.v. 10 mg/kg, read-out: AUC0→∞ i.v.
[6] = oral 30 mg/kg, mean n = 3, read-out: t1/2 Oral (converted)
[7] = oral 30 mg/kg, read-out: AUC0→t Oral
[8] = oral 30 mg/kg, read-out: AUC0→∞ Oral
[9] = po, 30 mg/kg, oral 30 mg/kg, read-out: tmax Oral

| inhibition at 0.1 µM (human A2B AR; CHO-K1, mean ± SEM) [%] | Cmax [1, 2] [ng/mL] | Cmax [1, 3] [ng/mL] | half-life [1, 4] [h] | AUC(0-inf) [1, 5] [ng·h/mL] | bioavailability [1] [%] | half-life [1, 6] [h] | AUC(0-t) [1, 7] [ng·h/mL] | AUC(0-inf) [1, 8] [ng·h/mL] | Tmax [1, 9] [h] | AUC0→t/Dose i.v. ([1]; i.v. 10 mg/kg) | AUC0→∞/Dose i.v. ([1]; i.v. 10 mg/kg) | Cmax/Dose i.v. ([1]; i.v. 10 mg/kg) | AUC0→t/Dose Oral ([1]; oral 30 mg/kg) | AUC0→∞/Dose Oral ([1]; oral 30 mg/kg) | Cmax/Dose Oral ([1]; oral 30 mg/kg) | melting point [°C] | Compound | further results |
| --- | --- | --- | --- | --- | --- | --- | --- | --- | --- | --- | --- | --- | --- | --- | --- | --- | --- | --- |
| 102.6 ± 0.24 | 5010 | 7160 | 2.67 | 17300 | 87.7 | 4.12 | 45500 | 46200 | 2 | 1728.68 (µg/L*h)/(mg/kg) | 1731.60 (µg/L*h)/(mg/kg) | 501.03 (µg/L)/(mg/kg) | 1516.35 (µg/L*h)/(mg/kg) | 1541.08 (µg/L*h)/(mg/kg) | 238.76 (µg/L)/(mg/kg) | 147 to 148 | Cc1c(C#N)cccc1-c1cc(-c2cn(Cc3cccc(C#N)n3)nn2)nc(N)n1 [Compound 7f, 6-((4-(2-Amino-6-(3-cyano-2-methylphenyl)pyrimidin-4-yl)-1H-1,2,3-triazol-1-yl)methyl)picolinonitrile] | inhibition at 0.01 µM (human A2B AR; CHO-K1, compound at 10 nM, mean ± SEM, read-out: hA2B AR percentage of inhibition (I%) of cAMP, 10 nM (converted)): 10.8%; Tmax ([1]; iv, 10 mg/kg, i.v. 10 mg/kg, read-out: tmax i.v.): 0.25 h |
| 103.3 ± 0.63 | 7270 | 1010 | 2.19 | 4480 | 58.8 | 4.82 | 7900 | 8150 | 1 | 448.46 (µg/L*h)/(mg/kg) | 448.48 (µg/L*h)/(mg/kg) | 726.66 (µg/L)/(mg/kg) | 263.50 (µg/L*h)/(mg/kg) | 271.51 (µg/L*h)/(mg/kg) | 33.58 (µg/L)/(mg/kg) | 151 to 152 | Cc1c(C#N)cccc1-c1cc(-c2cn(Cc3cccc(C(N)=O)n3)nn2)nc(N)n1 [Compound 7i, 6-((4-(2-Amino-6-(3-cyano-2-methylphenyl)pyrimidin-4-yl)-1H-1,2,3-triazol-1-yl)methyl)picolinamide] | IC50 (human A2B AR; CHO cells expressing hA2B AR, mean ± SEM, read-out: cAMP IC50 hA2B AR): 14.1 ± 2.05 nM; fold more active than AB928 (cAMP IC50, A2B AR) (human A2B AR; ratio of cAMP IC50 values vs AB928): 1.8 fold; AUC(0-t) ([1]; iv, i.v. 10 mg/kg, read-out: AUC0→t i.v.): 4480 ng·h/mL |
